Experimental data as given in PubChem BioAssay (NCI).
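Values below derive from 48-hour exposures of cells grown in 96-well plates, with endpoints linearly interpolated between the two concentrations bracketing the appropriate inhibition level. TGI marks complete inhibition of growth.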

Key:
Assay in all cases: NCI anticancer screen, dose series, 48 h
TK-10 renal = system: TK-10 renal
KM12 colon = system: KM12 colon
ACHN renal = system: ACHN renal
SF-268 CNS = system: SF-268 CNS
HT29 colon = system: HT29 colon
HCT-116 colon = system: HCT-116 colon
U251 CNS = system: U251 CNS
SW-620 colon = system: SW-620 colon
SN12C renal = system: SN12C renal
RXF 393 renal = system: RXF 393 renal
786-0 renal = system: 786-0 renal
SNB-19 CNS = system: SNB-19 CNS
HOP-92 NSCLC = system: HOP-92 NSCLC
OVCAR-4 ovarian = system: OVCAR-4 ovarian
SR leukemia = system: SR leukemia
PC-3 prostate = system: PC-3 prostate
MDA-MB-231 breast = system: MDA-MB-231 breast
T-47D breast = system: T-47D breast
HS 578T breast = system: HS 578T breast

Measured: TGI

CC#CC#C/C=C1\C=CC2(OC=CC2O)O1 (stereo not drawn)
> 22 µM: RXF 393 renal
7.3 µM: KM12 colon
22.9 µM: HCT-116 colon
not listed: PC-3 prostate | MDA-MB-231 breast | T-47D breast | HS 578T breast
> 23.3 µM: all other assays above

COc1cccc(/C=N/[N-]C(N)=O)c1[O-].[Co+2].[OH3+].c1ccncc1
not listed: TK-10 renal | SNB-19 CNS | SR leukemia | PC-3 prostate | MDA-MB-231 breast | T-47D breast | HS 578T breast
> 100 µM: all other assays above

O=C(OCC(OC(=O)c1ccccc1)C1CC(C2(O)CCCCC2)C(=O)O1)c1ccccc1 (stereo not drawn)
not listed: HOP-92 NSCLC | T-47D breast | HS 578T breast
> 25 µM: all other assays above

Cc1ccc(S(=O)(=O)Nn2c(S)c(C#N)c(-c3ccc(Cl)cc3)c(C#N)c2=O)cc1
58 µM: U251 CNS
76 µM: TK-10 renal
88.4 µM: KM12 colon
51.7 µM: SW-620 colon
69.7 µM: SN12C renal
43.2 µM: OVCAR-4 ovarian
not listed: SF-268 CNS | HT29 colon | T-47D breast | HS 578T breast
> 100 µM: all other assays above

COC(=O)C1=CCC2c3[nH]c4ccccc4c3CCN2C1 (stereo not drawn)
not listed: OVCAR-4 ovarian | PC-3 prostate | MDA-MB-231 breast | T-47D breast | HS 578T breast
> 354 µM: all other assays above

C=C(C)CCC(O)[C@](C)(O)[C@H]1[C@H](O)C[C@@]2(C)[C@@H]3CCc4c(cc(OC5OC(CO)C(O)C(O)C5O)c(O)c4C)C3(C)C(=O)C[C@]12C (stereo partly drawn)
not listed: HS 578T breast
> 100 µM: all other assays above

Cc1cccc(-c2nc(-c3cnccn3)n(Cc3ccccc3)n2)c1
94.1 µM: RXF 393 renal
79.6 µM: HOP-92 NSCLC
not listed: TK-10 renal | ACHN renal | HS 578T breast
> 100 µM: all other assays above

C/C(CCN(C)C)=N\OC(=O)c1ccccc1
not listed: PC-3 prostate | MDA-MB-231 breast | T-47D breast | HS 578T breast
> 100 µM: all other assays above

COc1ccc(CNc2nc3cc(C(F)(F)F)ccc3nc2C(=O)O)cc1
62.9 µM: HOP-92 NSCLC
56.1 µM: SR leukemia
62.6 µM: SN12C renal
63.6 µM: KM12 colon
41 µM: HCT-116 colon
63.2 µM: 786-0 renal
73.9 µM: HT29 colon
not listed: TK-10 renal | SF-268 CNS | RXF 393 renal | HS 578T breast
> 100 µM: all other assays above

O=C(CCCn1ccnc1[N+](=O)[O-])NCCn1cnc([N+](=O)[O-])n1
not listed: SNB-19 CNS | MDA-MB-231 breast
> 100 µM: all other assays above

CC(=O)Oc1cc(-c2oc3cc(OC(C)=O)c(C4OC(CO)C(O)C(O)C4O)c(OC(C)=O)c3c(=O)c2O)c(OC(C)=O)cc1O (stereo not drawn)
not listed: SF-268 CNS | SNB-19 CNS | SR leukemia | T-47D breast
> 100 µM: all other assays above

CC1CCc2c(sc3ncnc(N/N=C/c4ccc(Cl)cc4)c23)C1 (stereo not drawn)
91.2 µM: RXF 393 renal
55 µM: SR leukemia
93 µM: SNB-19 CNS
94.9 µM: ACHN renal
> 100 µM: TK-10 renal | SF-268 CNS | HT29 colon | HCT-116 colon | U251 CNS | SW-620 colon | SN12C renal | 786-0 renal

COc1cc(OC)c(/C=N\Nc2nc3ccccc3c(=O)n2-c2ccccc2)c(OC)c1
54.3 µM: HT29 colon
53.7 µM: PC-3 prostate
98.8 µM: SN12C renal
55 µM: RXF 393 renal
38.8 µM: ACHN renal
> 66 µM: TK-10 renal
> 31.6 µM: KM12 colon
40.6 µM: HCT-116 colon
> 86.1 µM: OVCAR-4 ovarian
78.6 µM: SNB-19 CNS
64.5 µM: T-47D breast
64.3 µM: HOP-92 NSCLC
65.5 µM: MDA-MB-231 breast
37.6 µM: 786-0 renal
not listed: HS 578T breast
> 100 µM: all other assays above

CC(C)C(CCOS(=O)(=O)O)CCC(C)[C@H]1[C@@H](O)C(O)C2[C@]3(O)C[C@@H](O)C4(O)C[C@@H](O)CC[C@]4(C)C3CC[C@@]21C (stereo partly drawn)
not listed: PC-3 prostate | MDA-MB-231 breast | T-47D breast | HS 578T breast
> 100 µM: all other assays above

COc1ccc(/C=C/C(=O)CCN2CCN(CCC(=O)/C=C/c3ccc(OC)cc3)CC2)cc1
26 µM: SN12C renal
34.5 µM: HOP-92 NSCLC
27.2 µM: ACHN renal
17.2 µM: RXF 393 renal
41.7 µM: SF-268 CNS
25.2 µM: MDA-MB-231 breast
23.8 µM: HT29 colon
50 µM: OVCAR-4 ovarian
> 100 µM: SNB-19 CNS
28 µM: TK-10 renal
19.7 µM: SW-620 colon
11.1 µM: HCT-116 colon
10.9 µM: 786-0 renal
26.6 µM: U251 CNS
70 µM: HS 578T breast
25.5 µM: PC-3 prostate
23 µM: KM12 colon

C[C@]12CCc3nn(-c4ccccc4)nc3C1CC[C@@H]1C2CC[C@]2(C)C(=O)CCC12 (stereo partly drawn)
not listed: PC-3 prostate | MDA-MB-231 breast | T-47D breast | HS 578T breast
> 100 µM: all other assays above

O=C1c2ccccc2C(=O)N1NC1=NCCN1
not listed: HOP-92 NSCLC | HS 578T breast
> 100 µM: all other assays above

O=c1c2cc([N+](=O)[O-])ccc2n2n1CCCCC2
not listed: T-47D breast
> 100 µM: all other assays above

CCN(/N=C1\CC2C=CCN(C2)C(=O)Cc2c1[nH]c1ccccc21)S(=O)(=O)c1ccc(C)cc1 (stereo not drawn)
not listed: SF-268 CNS | HT29 colon | RXF 393 renal | HOP-92 NSCLC | PC-3 prostate | MDA-MB-231 breast | T-47D breast | HS 578T breast
> 100 µM: all other assays above

COc1ccc(Nc2cc(=O)[nH]c(=O)[nH]2)cc1
not listed: T-47D breast
> 100 µM: all other assays above

C=C(C)[C@H]1CC(=O)[C@@]2(C)C[C@H]3O[C@]3(C)CC/C=C(\C)CC[C@H]12
85.4 µM: HCT-116 colon
54.6 µM: KM12 colon
71.1 µM: TK-10 renal
86.2 µM: PC-3 prostate
54.9 µM: SN12C renal
74.1 µM: RXF 393 renal
not listed: SR leukemia | HS 578T breast
> 100 µM: all other assays above

C=C1CN2CCc3c([nH]c4ccccc34)C2CC1CC(=O)N(C)C (stereo not drawn)
not listed: OVCAR-4 ovarian | PC-3 prostate | MDA-MB-231 breast | T-47D breast | HS 578T breast
> 309 µM: all other assays above

CC(N)C(C)c1ccccc1 (stereo not drawn)
not listed: PC-3 prostate | MDA-MB-231 breast | T-47D breast | HS 578T breast
> 100 µM: all other assays above

Cn1c(=O)n(C2(C)CSC2)c2ccccc21
not listed: PC-3 prostate | MDA-MB-231 breast | T-47D breast | HS 578T breast
> 100 µM: all other assays above

COc1ccc(-c2cc(=O)c3cc(O)ccc3o2)c(OC)c1OC
87.7 µM: KM12 colon
93.6 µM: ACHN renal
61.8 µM: HCT-116 colon
93 µM: SF-268 CNS
77.6 µM: SR leukemia
89.4 µM: RXF 393 renal
98 µM: HOP-92 NSCLC
> 100 µM: TK-10 renal | HT29 colon | SW-620 colon | SN12C renal | 786-0 renal | SNB-19 CNS | OVCAR-4 ovarian

CC(C)=CCc1cc(/C=C/C(=O)O)cc(CC=C(C)C)c1O
not listed: RXF 393 renal | T-47D breast
> 100 µM: all other assays above

O=C1CN(c2ccccc2)C(=O)CN1NCNN1CC(=O)N(c2ccccc2)CC1=O
not listed: MDA-MB-231 breast | T-47D breast
> 100 µM: all other assays above

O[C@@]12Cc3c([nH]c4ccccc34)[C@@H]3Oc4c(-c5ccccc5)ccc5c4[C@@]31CCN(CC1CC1)[C@@H]2C5
3.09 µM: U251 CNS
3.04 µM: 786-0 renal
3.29 µM: HT29 colon
14.7 µM: SF-268 CNS
4.71 µM: T-47D breast
> 100 µM: SR leukemia
3.35 µM: KM12 colon
3.95 µM: SNB-19 CNS
3.1 µM: HCT-116 colon
4.62 µM: HS 578T breast
2.75 µM: ACHN renal
7.03 µM: OVCAR-4 ovarian
3.76 µM: PC-3 prostate
21.4 µM: HOP-92 NSCLC
4.61 µM: SW-620 colon
